Test results: ChEMBL document CHEMBL1201862, “PubChem BioAssay data set” (2004)
Calls of active or inactive are those of the source.

Key:
[1] = inhibitors of Vif binding to APOBEC3G peptide, primary screen, biochemical, TR-FRET, GST-Vif 1-94, biotin-A3G peptide, dose response retest (AID 1117319); assay type: functional;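 also: TR-FRET signal of purified GST-Vif binding a biotinylated A3G peptide; inhibitors lower the FRET signal by blocking Vif and A3G binding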
Bcl-2-like protein 10 = molecular target: T1, Bcl-2-like protein 10 (Homo sapiens, UniProt Q9HD36); experiment: displacers of TR3 peptide from Bcl-B, primary screen, selectivity assay for Bfl-1 inhibitor project, biochemical, fluorescence polarization, FITC-TR3 peptide (AID 748);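 also: fluorescence polarization from a fluorescein-labelled TR3 peptide binding purified Bcl-B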
T1 sequence (Q9HD36 whole entry): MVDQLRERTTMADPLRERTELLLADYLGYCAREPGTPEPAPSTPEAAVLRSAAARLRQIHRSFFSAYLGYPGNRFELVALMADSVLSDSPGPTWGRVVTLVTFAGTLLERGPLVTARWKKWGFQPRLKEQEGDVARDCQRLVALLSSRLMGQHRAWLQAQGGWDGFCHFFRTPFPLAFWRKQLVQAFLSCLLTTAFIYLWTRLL

Estrogen receptor beta [2] = molecular target: T2, Estrogen receptor beta (Homo sapiens, UniProt Q92731);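 also: recombinant ER-beta bound to coactivator SRC1 peptide in presence of estradiol agonist; inhibitors block coactivator peptide binding and lower the FRET signal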
T2 sequence (Q92731 whole entry): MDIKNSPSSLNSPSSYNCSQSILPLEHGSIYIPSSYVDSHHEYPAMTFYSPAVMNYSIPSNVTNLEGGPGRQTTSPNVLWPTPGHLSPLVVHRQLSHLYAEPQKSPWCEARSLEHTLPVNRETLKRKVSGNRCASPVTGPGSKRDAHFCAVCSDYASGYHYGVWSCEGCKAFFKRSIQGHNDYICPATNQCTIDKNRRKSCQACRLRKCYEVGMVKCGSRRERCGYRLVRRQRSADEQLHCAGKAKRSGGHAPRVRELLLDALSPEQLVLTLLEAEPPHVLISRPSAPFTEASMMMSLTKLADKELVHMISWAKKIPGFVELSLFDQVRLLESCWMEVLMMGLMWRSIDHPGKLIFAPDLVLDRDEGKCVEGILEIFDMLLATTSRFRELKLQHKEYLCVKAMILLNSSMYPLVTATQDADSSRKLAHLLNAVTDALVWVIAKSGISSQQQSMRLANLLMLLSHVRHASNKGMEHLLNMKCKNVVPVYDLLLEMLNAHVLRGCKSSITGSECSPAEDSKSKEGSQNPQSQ

Estrogen receptor beta [3] = molecular target: T2, Estrogen receptor beta; experiment: ERβ–SRC-3 coactivator interaction inhibitors, confirmation, orthogonal assay, biochemical, ELISA, streptavidin-HRP readout (AID 1060)
Cytochrome P450 2C19 = Cytochrome P450 2C19 (Homo sapiens, UniProt P33261); experiment: qHTS Assay for Inhibitors and Substrates of Cytochrome P450 2C19. [Related pubchem assays: 410 ]; assay type: ADME; conditions: read-out: Potency
Cytochrome P450 2C19, sequence (P33261 whole entry): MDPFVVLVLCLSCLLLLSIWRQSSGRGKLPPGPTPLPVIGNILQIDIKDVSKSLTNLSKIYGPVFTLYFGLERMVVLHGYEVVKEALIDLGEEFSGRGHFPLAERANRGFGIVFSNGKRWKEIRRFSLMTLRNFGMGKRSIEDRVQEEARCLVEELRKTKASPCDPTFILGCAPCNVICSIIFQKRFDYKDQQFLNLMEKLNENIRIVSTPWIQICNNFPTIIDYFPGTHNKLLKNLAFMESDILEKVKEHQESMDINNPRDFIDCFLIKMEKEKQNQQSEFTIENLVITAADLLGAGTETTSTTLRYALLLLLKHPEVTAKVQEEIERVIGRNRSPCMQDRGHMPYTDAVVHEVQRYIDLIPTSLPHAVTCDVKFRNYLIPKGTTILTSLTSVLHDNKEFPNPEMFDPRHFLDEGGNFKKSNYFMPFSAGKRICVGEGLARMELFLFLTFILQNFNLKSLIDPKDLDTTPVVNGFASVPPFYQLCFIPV

[4] = molecular target: Peroxisome proliferator-activated receptor gamma/Nuclear receptor coactivator 3 (Homo sapiens, UniProt P37231); assay type: functional;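 also: agonist potency for raising coactivator recruitment to the receptor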
[5] = molecular target: Peroxisome proliferator-activated receptor gamma/Nuclear receptor coactivator 2 (Homo sapiens, UniProt P37231); assay type: functional;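 also: agonist potency for raising coactivator recruitment to the receptor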
Peroxisome proliferator-activated receptor gamma/Nuclear receptor coactivator 2, sequence (P37231 whole entry): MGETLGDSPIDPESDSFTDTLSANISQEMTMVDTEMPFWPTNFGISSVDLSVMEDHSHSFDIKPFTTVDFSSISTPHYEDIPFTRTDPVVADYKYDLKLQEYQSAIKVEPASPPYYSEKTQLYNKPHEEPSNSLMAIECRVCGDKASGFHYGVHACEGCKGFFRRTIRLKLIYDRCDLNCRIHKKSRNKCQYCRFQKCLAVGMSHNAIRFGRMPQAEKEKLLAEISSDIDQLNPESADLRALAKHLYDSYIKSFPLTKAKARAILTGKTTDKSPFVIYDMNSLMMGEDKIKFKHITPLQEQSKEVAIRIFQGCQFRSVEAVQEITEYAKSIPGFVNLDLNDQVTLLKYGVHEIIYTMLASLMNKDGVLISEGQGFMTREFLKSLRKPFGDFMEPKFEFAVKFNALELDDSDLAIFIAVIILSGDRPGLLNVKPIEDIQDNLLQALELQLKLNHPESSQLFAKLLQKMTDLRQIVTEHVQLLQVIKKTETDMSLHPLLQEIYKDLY
Peroxisome proliferator-activated receptor gamma/Nuclear receptor coactivator 2, sequence (Q15596 whole entry, further chain): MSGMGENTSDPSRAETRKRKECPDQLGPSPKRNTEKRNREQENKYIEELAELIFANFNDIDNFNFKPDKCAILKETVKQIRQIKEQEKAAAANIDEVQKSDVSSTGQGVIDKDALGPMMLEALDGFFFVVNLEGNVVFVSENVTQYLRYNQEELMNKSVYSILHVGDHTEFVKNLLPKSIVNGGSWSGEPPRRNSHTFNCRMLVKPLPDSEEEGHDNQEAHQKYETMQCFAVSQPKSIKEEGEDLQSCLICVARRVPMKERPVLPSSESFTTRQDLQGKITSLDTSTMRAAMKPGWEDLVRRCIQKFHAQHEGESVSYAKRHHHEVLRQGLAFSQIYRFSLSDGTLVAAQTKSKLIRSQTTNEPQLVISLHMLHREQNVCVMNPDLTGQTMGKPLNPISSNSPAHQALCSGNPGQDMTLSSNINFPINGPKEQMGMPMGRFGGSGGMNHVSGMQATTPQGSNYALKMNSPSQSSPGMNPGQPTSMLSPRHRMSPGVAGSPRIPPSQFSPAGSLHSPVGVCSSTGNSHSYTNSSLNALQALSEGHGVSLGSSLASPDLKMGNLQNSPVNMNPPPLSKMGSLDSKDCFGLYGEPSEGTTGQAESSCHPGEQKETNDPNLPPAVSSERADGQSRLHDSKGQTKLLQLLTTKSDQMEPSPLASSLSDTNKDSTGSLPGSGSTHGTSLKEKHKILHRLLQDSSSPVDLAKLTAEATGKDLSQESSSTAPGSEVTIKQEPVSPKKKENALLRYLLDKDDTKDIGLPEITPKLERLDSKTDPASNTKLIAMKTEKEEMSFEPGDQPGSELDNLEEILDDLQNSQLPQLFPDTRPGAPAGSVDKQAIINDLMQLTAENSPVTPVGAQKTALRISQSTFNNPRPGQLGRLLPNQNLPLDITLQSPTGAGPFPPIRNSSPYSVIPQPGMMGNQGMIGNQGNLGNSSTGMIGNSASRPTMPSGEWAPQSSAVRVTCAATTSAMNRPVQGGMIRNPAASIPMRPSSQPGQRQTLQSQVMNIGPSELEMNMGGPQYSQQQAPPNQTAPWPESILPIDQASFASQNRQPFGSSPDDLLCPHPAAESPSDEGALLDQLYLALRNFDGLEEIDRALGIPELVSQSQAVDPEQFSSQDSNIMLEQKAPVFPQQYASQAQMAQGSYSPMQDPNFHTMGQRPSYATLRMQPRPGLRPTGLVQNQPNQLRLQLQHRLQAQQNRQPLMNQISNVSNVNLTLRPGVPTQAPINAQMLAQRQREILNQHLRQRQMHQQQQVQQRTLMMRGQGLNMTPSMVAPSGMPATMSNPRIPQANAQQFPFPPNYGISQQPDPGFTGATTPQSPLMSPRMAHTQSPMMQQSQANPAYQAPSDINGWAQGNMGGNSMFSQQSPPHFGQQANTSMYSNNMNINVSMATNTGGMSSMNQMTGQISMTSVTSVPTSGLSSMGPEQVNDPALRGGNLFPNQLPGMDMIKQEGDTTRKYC

[6] = molecular target: Peroxisome proliferator-activated receptor gamma/Nuclear receptor coactivator 1 (Homo sapiens, UniProt P37231); assay type: functional;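 also: agonist potency as compounds enhance coactivator SRC-1 recruitment to PPARgamma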
Estrogen receptor = molecular target: T3, Estrogen receptor (Homo sapiens, UniProt P03372);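 also: potency for inhibiting coactivator peptide recruitment to the receptor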
T3 sequence (P03372 whole entry): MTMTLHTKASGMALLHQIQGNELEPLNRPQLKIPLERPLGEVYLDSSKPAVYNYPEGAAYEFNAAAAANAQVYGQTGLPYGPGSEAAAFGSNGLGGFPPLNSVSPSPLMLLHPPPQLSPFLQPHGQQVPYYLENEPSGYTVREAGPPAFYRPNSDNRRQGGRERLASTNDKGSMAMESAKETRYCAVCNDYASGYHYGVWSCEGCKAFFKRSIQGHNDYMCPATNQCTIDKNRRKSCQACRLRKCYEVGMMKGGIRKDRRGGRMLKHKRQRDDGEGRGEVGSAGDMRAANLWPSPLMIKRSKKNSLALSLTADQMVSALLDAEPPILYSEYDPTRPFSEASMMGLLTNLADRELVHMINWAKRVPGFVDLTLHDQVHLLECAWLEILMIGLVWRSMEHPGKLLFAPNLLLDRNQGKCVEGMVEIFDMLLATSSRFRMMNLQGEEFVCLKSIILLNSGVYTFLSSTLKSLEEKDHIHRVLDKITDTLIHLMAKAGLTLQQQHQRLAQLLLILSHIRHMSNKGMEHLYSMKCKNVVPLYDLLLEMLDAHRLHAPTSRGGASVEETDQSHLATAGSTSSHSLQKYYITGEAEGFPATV

[7] = Dose-response inhibition of insulin secretion in a rat insulinoma line at 5 mM glucose (AID 1117331); assay type: functional, cell-based; conditions: INS-1E
[8] = molecular target: T4, DNA repair protein RAD52 homolog (Homo sapiens, UniProt P43351); assay type: functional, biochemical
T4 sequence (P43351 whole entry): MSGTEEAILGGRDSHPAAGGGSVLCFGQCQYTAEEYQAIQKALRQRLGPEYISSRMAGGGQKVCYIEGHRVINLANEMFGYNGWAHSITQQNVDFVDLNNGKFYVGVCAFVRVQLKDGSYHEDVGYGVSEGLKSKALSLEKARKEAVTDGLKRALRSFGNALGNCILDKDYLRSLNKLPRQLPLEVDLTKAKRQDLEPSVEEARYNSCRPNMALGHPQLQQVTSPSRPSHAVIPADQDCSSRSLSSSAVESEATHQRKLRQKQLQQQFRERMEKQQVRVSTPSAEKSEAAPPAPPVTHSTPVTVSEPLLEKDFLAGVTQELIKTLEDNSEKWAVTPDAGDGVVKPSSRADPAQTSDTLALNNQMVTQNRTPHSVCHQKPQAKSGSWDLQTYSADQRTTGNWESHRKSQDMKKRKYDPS

[9] = molecular target: Heat shock protein HSP 90-alpha (Homo sapiens, UniProt P07900); assay type: functional, organism-based
[10] = inhibitors of PGC1a acetylation in cells, dose response, cell-based, cherry-picked samples (AID 720514); assay type: functional;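 also: potency may reflect raised or lowered acetylation signal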
Paired box protein Pax-8 = Paired box protein Pax-8 (Homo sapiens, UniProt Q06710); experiment: inhibitors of PAX8-driven TPO luciferase reporter, dose response, RMG-I cells, cherry-pick (AID 687027); assay type: functional, cell-based;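 also: luciferase reporter driven by Pax8 target thyroperoxidase promoter measured by SteadyGlo luminescence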
Paired box protein Pax-8, sequence (Q06710 whole entry): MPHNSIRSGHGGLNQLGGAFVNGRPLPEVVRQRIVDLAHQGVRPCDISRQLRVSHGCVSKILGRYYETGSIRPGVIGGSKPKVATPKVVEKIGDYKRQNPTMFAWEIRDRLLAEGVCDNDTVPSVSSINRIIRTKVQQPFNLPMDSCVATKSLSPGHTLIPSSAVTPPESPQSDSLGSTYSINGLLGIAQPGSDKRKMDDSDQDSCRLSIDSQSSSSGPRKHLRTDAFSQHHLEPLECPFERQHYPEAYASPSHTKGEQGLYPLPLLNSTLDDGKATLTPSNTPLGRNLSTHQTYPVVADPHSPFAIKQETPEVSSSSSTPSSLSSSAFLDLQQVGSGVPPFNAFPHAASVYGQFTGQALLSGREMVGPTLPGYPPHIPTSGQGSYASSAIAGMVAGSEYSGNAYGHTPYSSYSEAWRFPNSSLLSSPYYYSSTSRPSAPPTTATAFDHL

[11] = non-specific cell cytotoxicity, dose response, cytotoxicity control for PAX8 inhibitor project, plate reader, dry powder samples (AID 743021); assay type: functional, cell-based
[12] = P. falciparum Dd2 growth inhibitors, dose response, SYBR Green, cherry-picked samples (AID 1159567); assay type: functional, cell-based
[13] = NIH:OVCAR-3 ovarian cancer cell cytotoxicity, dose response, PAX8 inhibitor project, plate reader, dry powder samples (AID 743044); assay type: functional, cell-based
[14] = P. falciparum Dd2 growth inhibitors, dose response, SYBR Green, dry powder samples, set 9 (AID 1159568); assay type: functional, cell-based
[15] = cytotoxicity in OVCAR8 ovarian cancer cells, dose response, PAX8 project, cell-based, plate reader, dry powder samples (AID 743197); assay type: functional; conditions: OVCAR-8
[16] = HepG2 cell cytotoxicity, dose response, cytotoxicity control, plate reader, cherry-pick, antagonist series (AID 743416); assay type: functional, cell-based
[17] = MC4R antagonists, dose response, counter-screen for LGR2 antagonist project, cell-based, plate reader, cherry pick (AID 743444); assay type: functional;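 also: transfected HEK 293 cells stimulated with alpha-MSH peptide; potency of inhibitors of the alpha-MSH evoked signal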
[18] = A549 cell cytotoxicity, dose response, cytotoxicity control, plate reader, cherry-pick, antagonist series (AID 743412); assay type: functional, cell-based
[19] = T. cruzi growth inhibition in host cells, dose response, cell-based, plate reader, dry powder, set 2 (AID 652275); assay type: functional
[20] = P. falciparum ATP4 D1247Y mutant growth inhibitors, dose response, NITD609-resistant line, SYBR Green, dry powder (AID 1159571); assay type: functional, cell-based;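 also: parasites synchronized at ring stage by sorbitol before testing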
[21] = P. falciparum 3D7-ScDHODH growth inhibitors, dose response, SYBR Green, dry powder samples (AID 1159570); assay type: functional, cell-based;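 also: parasite growth measured after 72 hours of compound exposure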
[22] = HepG2 cell cytotoxicity, dose response, cytotoxicity control, plate reader, dry powder samples (AID 1159569); assay type: functional, cell-based;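 also: inhibitor potency with signal falling toward the positive control level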
[23] = P. falciparum Dd2 growth inhibitors, dose response, SYBR Green, dry powder samples (AID 1159566); assay type: functional, cell-based;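 also: potency for growth inhibition with lower SYBR green DNA signal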
[24] = molecular target: T5, Methionyl-tRNA synthetase, putative (Trypanosoma brucei brucei, UniProt Q38C91); assay type: functional, Trypanosoma brucei brucei strain 927/4 GUTat10.1
T5 sequence (Q38C91 whole entry): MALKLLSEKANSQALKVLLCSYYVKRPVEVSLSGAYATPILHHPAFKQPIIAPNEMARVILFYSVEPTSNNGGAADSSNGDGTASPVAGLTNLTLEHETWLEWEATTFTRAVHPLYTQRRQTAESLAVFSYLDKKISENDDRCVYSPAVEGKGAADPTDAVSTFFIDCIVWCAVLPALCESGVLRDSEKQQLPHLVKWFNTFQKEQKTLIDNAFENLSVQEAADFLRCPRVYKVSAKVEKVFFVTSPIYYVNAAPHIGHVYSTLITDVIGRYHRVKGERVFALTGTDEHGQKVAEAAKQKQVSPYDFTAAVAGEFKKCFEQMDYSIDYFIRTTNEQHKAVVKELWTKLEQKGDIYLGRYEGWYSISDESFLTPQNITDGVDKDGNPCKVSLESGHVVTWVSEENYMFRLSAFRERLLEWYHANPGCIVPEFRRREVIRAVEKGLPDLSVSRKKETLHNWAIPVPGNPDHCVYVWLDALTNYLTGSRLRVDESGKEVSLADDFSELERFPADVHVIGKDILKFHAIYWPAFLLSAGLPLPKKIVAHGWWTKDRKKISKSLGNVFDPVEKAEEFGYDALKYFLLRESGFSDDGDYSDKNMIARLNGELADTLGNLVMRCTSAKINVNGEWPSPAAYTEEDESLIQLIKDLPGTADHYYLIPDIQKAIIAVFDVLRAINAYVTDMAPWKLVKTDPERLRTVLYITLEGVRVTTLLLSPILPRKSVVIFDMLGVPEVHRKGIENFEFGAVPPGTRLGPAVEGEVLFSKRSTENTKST

[25] = molecular target: T5, Methionyl-tRNA synthetase, putative; assay type: functional, Trypanosoma brucei brucei strain 927/4 GUTat10.1; remark: listed apart in the source
[26] = Counterscreen for inhibitors of Trypanosoma brucei methionyl tRNA synthetase (MetRS): Luminescence-based cell-based high throughput dose response assay to identify compounds that are cytotoxic to Jurkat human T lymphocyte cells.; assay type: functional

## CCc1ccccc1NC(=O)c1cc2ncc(Br)cn2n1
[1]
  IC50: > 100 µM (active)
Bcl-2-like protein 10
  IC50: 62.5 µM (inactive)
Estrogen receptor beta [2]
  IC50: 31 µM (not active)
Estrogen receptor beta [3]
  IC50: 14.7 µM (not active)

## CC(=O)c1ccc(OC2C=CC(C#Cc3ccc(Br)cc3)OC2CO)cc1 (stereo not given)
Cytochrome P450 2C19
  AC50: 3.98 µM (inconclusive)

## CCCCC#CC1C=CC(OC(C)=O)C(COC(C)=O)O1 (stereo not given)
Cytochrome P450 2C19
  AC50: 7.94 µM (inconclusive)

## O=C(C1=C[C@@H](c2ccc(C(F)(F)F)cc2)C[C@@H](OCCCCO)O1)N1CCN(Cc2ccc3c(c2)OCO3)CC1
[4]
  EC50: > 79.4 µM (not active)
[5]
  EC50: > 79.4 µM (not active)
[6]
  EC50: > 79.4 µM (not active)

## CC(C)NC(=O)NC(=O)CSc1ccccc1F
[4]
  EC50: > 79.4 µM (not active)
[5]
  EC50: > 79.4 µM (not active)
[6]
  EC50: > 79.4 µM (not active)

## Cc1ccc(C(=O)NCC(=O)OCC(=O)c2c(N)n(C)c(=O)n(C)c2=O)s1
Estrogen receptor
  IC50: > 50 µM (not active)
Estrogen receptor beta [2]
  IC50: 6.84 µM (active)
Estrogen receptor beta [3]
  IC50: 6.1 µM (not active)

## COc1ccc2c(c1OC)C(=O)O[C@H]2[C@@H]1c2cc3c(cc2CCN1C)OCO3
[7]
  IC50: > 33.3 µM (inactive)

## CCOC(=O)/C(C#N)=C/c1c(OCC)n(CC)c2ccccc12
[1]
  IC50: > 100 µM (active)

## CCCCCCCCCCCCCCCC[n+]1ccccc1
[8]
  AC50: 5.71 µM (active)
[9]
  AC50: 2.73 µM (active)

## CCC(C)NS(=O)(=O)c1ccc(NS(=O)(=O)c2ccc(F)cc2)cc1 (stereo not given)
[1]
  IC50: > 100 µM (active)

## O=C(NC1CCCC1)C(c1ccncc1)N(Cc1ccccc1F)C(=O)c1csnn1 (stereo not given)
[10]
  AC50: 34.7 µM (active)

## COc1ccc(S(=O)(=O)Nc2ccc3c(c2)C(=O)N([C@@H](C)CO)C[C@H](C)[C@@H](CN(C)C(=O)Nc2ccc(F)cc2)OCCCC[C@H](C)O3)cc1
Paired box protein Pax-8
  AC50: 9.96 µM (active)
[11]
  AC50: 59.1 µM (active)

## O=C(C[C@H]1C[C@@H]2c3cc(NS(=O)(=O)c4ccc(F)cc4)ccc3O[C@@H]2[C@@H](CO)O1)N1CCc2ccccc2C1
[12]
  AC50: 9.73 µM (active)
Paired box protein Pax-8
  AC50: 3.86 µM (active)
[11]
  AC50: 57.8 µM (active)
[10]
  AC50: 17.5 µM (active)
[13]
  AC50: 26.1 µM (active)
[14]
  AC50: 6.85 µM (active)
[15]
  AC50: 23.9 µM (active)

## C[C@H]1CN([C@@H](C)CO)C(=O)c2cc(C#CCc3ccccc3)cnc2O[C@H]1CN(C)Cc1ccccc1
[16]
  AC50: > 52 µM (inactive)
[17]
  AC50: 38.2 µM (active)
[18]
  AC50: 23.3 µM (active)

## CN(C)C(=O)c1ccc(-c2ccc([C@H]3[C@H](CO)N4CCCCN(C(=O)C5CCCC5)C[C@@H]34)cc2)cc1
[19]
  AC50: 0.0488 µM (active)

## COc1ccc(C#Cc2cccc(-c3nc(C(=O)NCc4ccc5c(c4)OCO5)cc4c3[C@@H](CCO)N([S+]([O-])C(C)(C)C)C4)c2)cc1OC (stereo not given in full)
[19]
  AC50: 0.58 µM (active)
[20]
  AC50: 1.52 µM (active)
[21]
  AC50: 2.05 µM (active)
[12]
  AC50: 0.747 µM (active)
[22]
  AC50: > 100 µM (inactive)
[23]
  AC50: 0.838 µM (active)

## CN(C)C(=O)c1cccc(-c2ccc([C@H]3[C@H](CO)N4CCCCN(CC5CCOCC5)C[C@@H]34)cc2)c1
[19]
  AC50: 4.63 µM (active)

## CN(C)CC(=O)N1CCCCN2[C@@H](CO)[C@H](c3ccc(/C=C/c4ccccc4)cc3)[C@@H]2C1
[10]
  AC50: 23.8 µM (active)

## CC(=N)/C(C#N)=C(/O)CSc1nnc(Nc2ccccc2C)s1
Estrogen receptor beta [2]
  IC50: 12.2 µM (active)
Estrogen receptor beta [3]
  IC50: 5.18 µM (not active)

## C[C@@H]1CCCCO[C@@H](CN(C)C(=O)Nc2cccc3ccccc23)[C@H](C)CN([C@H](C)CO)C(=O)c2cc(NC(=O)CCC(F)(F)F)ccc2O1
[14]
  AC50: 1.08 µM (active)

## COc1ccc(NC(=O)N(C)C[C@H]2Oc3c(NC(=O)CCCCCC(=O)Nc4ccccc4N)cccc3C(=O)N([C@@H](C)CO)C[C@H]2C)cc1
[14]
  AC50: 0.983 µM (active)

## COc1cc2nc(Nc3cccc(F)c3)nc(N)c2cc1OC
[8]
  AC50: 8.77 µM (active)
[24]
  IC50: 18.2 µM (inactive)
[25]
  IC50: 26.2 µM (inactive)
[26]
  IC50: 35.5 µM (inactive)
